# From patent publication US20070027150A1 (priority 2005, published 2007)
# Target: His-tagged N-terminal ATP binding domain (amino acid residues 9-236) of HSP90α (Homo sapiens, UniProt P07900)
# Test: HSP90 inhibitor binding potency: TRF competition binding assay
# Settings: Table II; read-out: Hsp90 IC50 Range
# Method in brief: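 Competition against biotinylated radicicol for binding to the His-tagged 9-236 ATP domain of HSP90α: 2 h, room temperature, HEPES/MgCl2/KCl/BSA buffer. Streptavidin capture, then europium-labeled anti-His antibody and enhancement solution; europium counts give IC50.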
row,IC50,Compound
1,1000 to 10000 nM,"CCc1nc(N)nc2c1C(=O)CC(c1ccc(F)cc1-c1cccnc1F)C2 (stereo not drawn) [Compound 319, 2-amino-4-ethyl-7-[4-fluoro-2-(2-fluoro-pyridin-3-yl)-phenyl]-7,8-dihydro-6H-quinazolin-5-one]"
2,> 10000 nM,"CCc1nc(N)nc2c1C(=O)CC(c1ccc(F)cc1-c1cccc(OC)c1F)C2 (stereo not drawn) [Compound 320, 2-amino-7-(5,2′-difluoro-3′-methoxy-biphenyl-2-yl)-4-ethyl-7,8-dihydro-6H-quinazolin-5-one]"
3,1000 to 10000 nM,"CCc1nc(N)nc2c1C(=O)CC(c1ccc(F)cc1-c1ccccc1OC)C2 (stereo not drawn) [Compound 321, 2-amino-4-ethyl-7-(5-fluoro-2′-methoxy-biphenyl-2-yl)-7,8-dihydro-6H-quinazolin-5-one]"
4,< 1000 nM,"COc1ncc(-c2cc(F)ccc2C2CC(=O)c3c(C)nc(N)nc3C2)nc1OC (stereo not drawn) [Compound 322, 2-amino-7-[2-(5,6-dimethoxy-pyrazin-2-yl)-4-fluoro-phenyl]-4-methyl-7,8-dihydro-6H-quinazolin-5-one]"
5,< 1000 nM,"COc1ncc(-c2cc(F)ccc2[C@@H]2CC(=O)c3c(C)nc(N)nc3C2)nc1OC [Compound 323, (S)-2-amino-7-[2-(5,6-dimethoxy-pyrazin-2-yl)-4-fluoro-phenyl]-4-methyl-7,8-dihydro-6H-quinazolin-5-one]"
6,< 1000 nM,"CCc1nc(N)nc2c1C(=O)CC(c1ccc(F)cc1-c1cnc(OC)c(OC)n1)C2 (stereo not drawn) [Compound 324, 2-amino-7-[2-(5,6-dimethoxy-pyrazin-2-yl)-4-fluoro-phenyl]-4-ethyl-7,8-dihydro-6H-quinazolin-5-one]"
7,< 1000 nM,"CCc1nc(N)nc2c1C(=O)CC(c1ccc(F)cc1-c1cncc(OC)n1)C2 (stereo not drawn) [Compound 325, 2-amino-4-ethyl-7-[4-fluoro-2-(6-methoxy-pyrazin-2-yl)-phenyl]-7,8-dihydro-6H-quinazolin-5-one]"
8,1000 to 10000 nM,"CC(=O)c1ccc(-c2cc(F)ccc2[C@@H]2CC(=O)c3c(C)nc(N)nc3C2)s1 [Compound 326, (S)-7-[2-(5-Acetyl-thiophen-2-yl)-4-fluoro-phenyl]-2-amino-4-methyl-7,8-dihydro-6H-quinazolin-5-one]"
9,< 1000 nM,"COc1cc(-n2ccnc2C2CC(=O)c3c(C)nc(N)nc3C2)c(OC)cc1Cl (stereo not drawn) [Compound 327, 2-amino-7-[1-(4-chloro-2,5-dimethoxy-phenyl)-1H-imidazol-2-yl]-4-methyl-7,8-dihydro-6H-quinazolin-5-one]"
10,1000 to 10000 nM,"Cc1nc(N)nc2c1C(=O)CC(c1nccn1-c1ccc(Cl)cc1F)C2 (stereo not drawn) [Compound 328, 2-amino-7-[1-(4-chloro-2-fluoro-phenyl)-1H-imidazol-2-yl]-4-methyl-7,8-dihydro-6H-quinazolin-5-one]"
11,1000 to 10000 nM,"Cc1ccc(-n2ccnc2C2CC(=O)c3c(C)nc(N)nc3C2)c(F)c1 (stereo not drawn) [Compound 329, 2-amino-7-[1-(2-fluoro-4-methyl-phenyl)-1H-imidazol-2-yl]-4-methyl-7,8-dihydro-6H-quinazolin-5-one]"
12,1000 to 10000 nM,"COc1cc(Cl)c(C)cc1-n1ccnc1C1CC(=O)c2c(C)nc(N)nc2C1 (stereo not drawn) [Compound 330, 2-amino-7-[1-(4-chloro-2-methoxy-5-methyl-phenyl)-1H-imidazol-2-yl]-4-methyl-7,8-dihydro-6H-quinazolin-5-one]"
13,> 10000 nM,"Cc1nc(N)nc2c1C(=O)C[C@@H](c1ccc(F)cc1-c1cnc3ncn(C)c3n1)C2 [Compound 331, (S)-2-amino-7-[4-fluoro-2-(3-methyl-3H-imidazo[4,5-b]pyrazin-5-yl)-phenyl]-4-methyl-7,8-dihydro-6H-quinazolin-5-one]"
14,< 1000 nM,"COc1nc(-c2cc(F)ccc2[C@@H]2CC(=O)c3c(C)nc(N)nc3C2)cnc1C [Compound 332, (S)-2-amino-7-[4-fluoro-2-(6-methoxy-5-methyl-pyrazin-2-yl)-phenyl]-4-methyl-7,8-dihydro-6H-quinazolin-5-one]"
15,1000 to 10000 nM,"CCc1cc(-n2ccnc2C2CC(=O)c3c(C)nc(N)nc3C2)ccc1C (stereo not drawn) [Compound 333, 2-amino-7-[1-(3-ethyl-4-methyl-phenyl)-1H-imidazol-2-yl]-4-methyl-7,8-dihydro-6H-quinazolin-5-one]"
